# Measurements: patent US10722514B2 (FLX Bio, Inc., priority 2017, dated 2020)
# Structures can show the parent of a compound that is named as a salt. Where two headings read alike, the source gives them in different places.
# Molecular target: T1, recombinant full-length USP7 (Homo sapiens, UniProt Q93009)
# T1 construct: A 25 μl reaction volume containing recombinant full-length USP7 (62 pM)
# Test: USP7-mediated ubiquitin-rhodamine cleavage assay
# Format: biochemical
# Settings: recombinant full-length USP7 62 pM, ubiquitin-rhodamine 100 nM, 1 hour reaction at room temperature
# Summary of the method: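 After compound and enzyme (62 pM) sat together 30 min at RT, 100 nM fluorogenic ubiquitin-rhodamine substrate was added for 1 h protected from light. Acetic acid quenched the reaction prior to the fluorescence read.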
# [1] = 30-minute incubation with compound, read-out: Potency: USP7 IC50
# [2] = 30-minute pre-incubation, read-out: Potency (USP7 IC50)
# T1 sequence (Q93009 whole entry): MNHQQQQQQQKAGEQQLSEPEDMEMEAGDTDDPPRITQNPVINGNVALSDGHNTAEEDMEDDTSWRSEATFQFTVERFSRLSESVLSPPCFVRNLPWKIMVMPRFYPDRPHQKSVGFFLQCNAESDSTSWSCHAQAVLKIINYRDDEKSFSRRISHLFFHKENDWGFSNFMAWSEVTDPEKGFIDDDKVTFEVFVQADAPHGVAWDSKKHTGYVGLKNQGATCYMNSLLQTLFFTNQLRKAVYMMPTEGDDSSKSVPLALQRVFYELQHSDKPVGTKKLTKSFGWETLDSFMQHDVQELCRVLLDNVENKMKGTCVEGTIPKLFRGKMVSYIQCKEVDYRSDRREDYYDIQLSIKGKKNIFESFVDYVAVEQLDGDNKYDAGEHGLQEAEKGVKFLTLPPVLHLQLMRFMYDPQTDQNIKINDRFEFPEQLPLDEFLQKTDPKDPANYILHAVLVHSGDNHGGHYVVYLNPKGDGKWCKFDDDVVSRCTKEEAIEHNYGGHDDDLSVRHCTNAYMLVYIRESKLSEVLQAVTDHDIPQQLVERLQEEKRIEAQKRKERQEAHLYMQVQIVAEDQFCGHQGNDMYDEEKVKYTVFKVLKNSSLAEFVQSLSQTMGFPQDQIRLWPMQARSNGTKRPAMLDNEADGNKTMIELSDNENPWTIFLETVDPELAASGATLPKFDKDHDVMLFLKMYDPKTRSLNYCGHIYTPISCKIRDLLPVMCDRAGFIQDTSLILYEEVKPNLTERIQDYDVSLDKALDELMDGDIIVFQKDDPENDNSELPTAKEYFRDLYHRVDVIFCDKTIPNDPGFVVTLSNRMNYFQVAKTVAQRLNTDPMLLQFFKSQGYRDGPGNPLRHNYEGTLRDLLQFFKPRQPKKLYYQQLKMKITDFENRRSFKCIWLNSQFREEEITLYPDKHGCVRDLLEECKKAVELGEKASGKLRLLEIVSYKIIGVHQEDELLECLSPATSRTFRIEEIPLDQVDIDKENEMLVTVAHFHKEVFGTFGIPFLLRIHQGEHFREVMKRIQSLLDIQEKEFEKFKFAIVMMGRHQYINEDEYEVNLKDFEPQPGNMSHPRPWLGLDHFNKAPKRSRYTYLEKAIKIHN
Molecule,IC50 [1],IC50 [2],also measured
"Cc1cc(Cl)cc(-c2ccnc3cc(CN4C(=O)CCC4=O)sc23)c1OC1CC2(CCN2)C1 (stereo not drawn) [Example 464, 1-[[7-[2-(1-azaspiro[3.3]heptan-6-yloxy)-5-chloro-3-methyl-phenyl]thieno[3,2-b]pyridin-2-yl]methyl]pyrrolidine-2,5-dione; 2,2,2-trifluoroacetic acid]",–,< 1 µM,–
"Cc1cc(Cl)cc(-c2ccnc3cc(Cn4c(=O)ccn(CC(F)(F)F)c4=O)sc23)c1OC1CCC(F)(F)CC1 [Example 682, 3-[[7-[5-chloro-2-(4,4-difluorocycllohexoxy)-3-methyl-phenyl]thieno[3,2-b]pyridin-2-yl]methyl]-1-(2,2,2-trifluoroethyl)pyrimidine-2,4-dione]",–,–,"IC50 (30-minute incubation, read-out: Potency (USP7 IC50)): < 1 µM"
"Cc1cc(Cl)cc(-c2ccnc3cc(Cn4c(=O)ccn(CC(F)(F)F)c4=O)sc23)c1OC1CC(N2CCOC[C@@H]2C)C1 (stereo partly drawn) [Example 658, 3-[[7-[5-chloro-3-methyl-2-[3-[(3S)-3-methylmorpholin-4-yl]cyclobutoxy]phenyl]thieno[3,2-b]pyridin-2-yl]methyl]-1-(2,2,2-trifluoroethyl)pyrimidine-2,4-dione; 2,2,2-trifluoroacetic acid]",–,< 1 µM,–
"3-[[7-[5-chloro-3-methyl-2-[[(3S,6S)-6-methyl-3-piperidyl]oxy]phenyl]thieno[3,2-b]pyridin-2-yl]methyl]-6,6-dimethyl-3-azabicyclo[3.1.0]hexane-2,4-dione; 2,2,2-tirfluoroacetic acid [Example 304]",< 1 µM,–,–
"Cc1cc(Cl)cc(-c2ncnc3cc(Cn4c(=O)ccn(C(C)C)c4=O)sc23)c1O[C@@H]1CCNC[C@@H]1C [Example 508, 3-[[4-[5-chloro-3-methyl-2-[[(3S,4R)-3-methyl-4-piperidyl]oxy]phenyl]thieno[3,2-d]pyrimidin-6-yl]methyl]-1-isopropyl-pyrimidine-2,4-dione]",–,< 1 µM,–
"Cc1cc(Cl)cc(-c2ccnc3cc(Cn4c(=O)ccn(C)c4=O)sc23)c1O[C@@H]1CC[C@](C)(N)C1 [Example 519, 3-[[7-[2-[(1R,3S)-3-amino-3-methyl-cyclopentoxy]-5-chloro-3-methyl-phenyl]thieno[3,2-b]pyridin-2-yl]methyl]-1-methyl-pyrimidine-2,4-dione; 2,2,2-trifluoroacetic acid]",–,< 1 µM,–
"Cc1cc(Cl)cc(-c2ccnc3cc(CO)sc23)c1O[C@@H]1CN[C@H](CO)C1 [Example 77, (7-(5-Chloro-2-(((3S,5S)-5-(hydroxymethyl)pyrrolidin-3-yl)oxy)-3-methylphenyl)thieno[3,2-b]pyridin-2-yl)methanol]",10 to 30 µM,–,–
"Cc1cc(Cl)cc(-c2ccnc3cc(CN4C(=O)C5C(C4=O)C5(C)C)sc23)c1O[C@@H]1C[C@H]2CN[C@@H]1C2 (stereo partly drawn) [Example 331, 3-[[7-[2-[[(1S,4R,5R)-3-azabicyclo[2.2.1]heptan-5-yl]oxy]-5-chloro-3-methyl-phenyl]thieno[3,2-b]pyridin-2-yl]methyl]-6,6-dimethyl-3-azabicyclo[3.1.0]hexane-2,4-dione]",< 1 µM,–,–
"Cc1cc(Cl)cc(-c2ccnc3cc(CN4C(=O)CN(CC(F)(F)F)C4=O)sc23)c1OC1CCNCC1 [Example 649, 3-[[7-[5-chloro-3-methyl-2-(4-piperidyloxy)phenyl]thieno[3,2-b]pyridin-2-yl]methyl]-1-(2,2,2-trifluoroethyl)imidazolidine-2,4-dione; 2,2,2-trifluoroacetic acid]",–,< 1 µM,–
"Cc1cc(Cl)cc(-c2ccnc3cc(CN4C(=O)CCC4=O)sc23)c1OC1CC(N)C1 (stereo not drawn) [Example 413, 1-[[7-[2-(3-aminocyclobutoxy)-5-chloro-3-methyl-phenyl]thieno[3,2-b]pyridin-2-yl]methyl]pyrrolidine-2,5-dione dihydrochloride]",–,< 1 µM,–
"CCC(O)c1cc2nccc(-c3cc(C#N)cc(C)c3OCC3(C)CNC3)c2s1 (stereo not drawn) [Example 31, 3-(2-(1-Hydroxypropyl)thieno[3,2-b]pyridin-7-yl)-5-methyl-4-((3-methylazetidin-3-yl)methoxy)benzonitrile]",1 to 10 µM,–,–
"Cc1cc(Cl)cc(-c2ccnc3cc(CN4C(=O)CSC4=O)sc23)c1O[C@H]1CCCNC1 [Example 249, (S)-3-((7-(5-Chloro-3-methyl-2-(piperidin-3-yloxy)phenyl)thieno[3,2-b]pyridin-2-yl)methyl)thiazolidine-2,4-dione]",< 1 µM,–,–
"Cc1cc(Cl)cc(-c2ccnc3cc(CN4C(=O)CCC4=O)sc23)c1O[C@H]1CC[C@@H](C)NC1 [Example 416, 1-[[7-[5-chloro-3-methyl-2-[[(3S,6R)-6-methyl-3-piperidyl]oxy]phenyl]thieno[3,2-b]pyridin-2-yl]methyl]pyrrolidine-2,5-dione]",–,< 1 µM,–
"Cc1cc(Cl)cc(-c2ccnc3cc(CN4C(=O)C[C@@H](F)C4=O)sc23)c1OC1CCNCC1 [Example 414, (3R)-1-[[7-[5-chloro-3-methyl-2-(4-piperidyloxy)phenyl]thieno[3,2-b]pyridin-2-yl]methyl]-3-fluoro-pyrrolidine-2,5-dione]",–,< 1 µM,–
"CC[C@@H](c1cc2nccc(-c3cc(Cl)cc(C)c3O[C@H]3CCCNC3)c2s1)N1C(=O)CCC1=O [Example 257, 1-((S)-1-(7-(5-Chloro-3-methyl-2-(((S)-piperidin-3-yl)oxy)phenyl)thieno[3,2-b]pyridin-2-yl)propyl)pyrrolidine-2,5-dione]",< 1 µM,–,–
"Cc1cc(Cl)cc(-c2ccnc3cc(CN4C(=O)CCC4=O)sc23)c1O[C@H]1CCCNC1 [Example 211, (S)-1-((7-(5-Chloro-3-methyl-2-(piperidin-3-yloxy)phenyl)thieno[3,2-b]pyridin-2-yl)methyl)pyrrolidine-2,5-dione]",< 1 µM,–,–
"Cc1cc(Cl)cc(-c2ccnc3cc(CO)sc23)c1O[C@@H]1CNC[C@@H]1C(C)C [Example 68, (7-(5-Chloro-2-(((3S,4S)-4-isopropylpyrrolidin-3-yl)oxy)-3-methylphenyl)thieno[3,2-b]pyridin-2-yl)methanol]",> 30 µM,–,–

# Further lines, with some results ahead:
IC50 [1],IC50 [2],Molecule,also measured
< 1 µM,–,"Cc1cc(Cl)cc(-c2ccnc3cc(CN4C(=O)CCC4=O)sc23)c1O[C@@H]1CCNC[C@@H]1F [Example 209, 1-((7-(5-Chloro-2-(((3S,4R)-3-fluoropiperidin-4-yl)oxy)-3-methylphenyl)thieno[3,2-b]pyridin-2-yl)methyl)pyrrolidine-2,5-dione]",–
–,< 1 µM,"Cc1cc(Cl)cc(-c2ccnc3cc(Cn4c(=O)ccn(C)c4=O)sc23)c1O[C@@H]1CN[C@H](C(=O)O)C1 [Example 486, (2S,4S)-4-[4-chloro-2-methyl-6-[2-[(3-methyl-2,6-dioxo-pyrimidin-1-yl)methyl]thieno[3,2-b]pyridin-7-yl]phenoxy]pyrrolidine-2-carboxylic acid]",–
< 1 µM,–,"Cc1cc(Cl)cc(-c2ccnc3cc(Cn4c(=O)ccn(C)c4=O)sc23)c1O[C@H]1CCCNCC1 [Example 8, (S)-3-((7-(2-(Azepan-4-yloxy)-5-chloro-3-methylphenyl)thieno[3,2-b]pyridin-2-yl)methyl)-1-methylpyrimidine-2,4(1H,3H)-dione]",–
–,1 to 10 µM,"Cc1c(F)c(Cl)cc(-c2ccnc3cc(Cn4c(=O)ccn(C)c4=O)sc23)c1O[C@H]1CCCNC1 [Example 435, 3-[[7-[5-chloro-4-fluoro-3-methyl-2-[[(3S)-3-piperidyl]oxy]phenyl]thieno[3,2-b]pyridin-2-yl]methyl]-1-methyl-pyrimidine-2,4-dione dihydrochloride]",–
–,< 1 µM,"CCN1C[C@H](F)[C@H](Oc2c(C)cc(Cl)cc2-c2ccnc3cc(Cn4c(=O)ccn(C)c4=O)sc23)C1 [Example 459, 3-[[7-[5-chloro-2-[(3R,4S)-1-ethyl-4-fluoro-pyrrolidin-3-yl]oxy-3-methyl-phenyl]thieno[3,2-b]pyridin-2-yl]methyl]-1-methyl-pyrimidine-2,4-dione; 2,2,2-trifluoroacetic acid]",–
–,< 1 µM,"Cc1cc(Cl)cc(-c2ccnc3cc(Cn4c(=O)ccn(C)c4=O)sc23)c1O[C@@H]1CNC[C@@H](O)C1 [Example 500, 3-[[7-[5-chloro-2-[[(3S,5S)-5-hydroxy-3-piperidyl]oxy]-3-methyl-phenyl]thieno[3,2-b]pyridin-2-yl]methyl]-1-methyl-pyrimidine-2,4-dione]",–
–,< 1 µM,"Cc1cc(Cl)cc(-c2ccnc3cc(Cn4c(=O)ccn(C5CCC5)c4=O)sc23)c1O[C@H]1CCCNC1 [Example 477, 3-[[7-[5-chloro-3-methyl-2-[[(3S)-3-piperidyl]oxy]phenyl]thieno[3,2-b]pyridin-2-yl]methyl]-1-cyclobutyl-pyrimidine-2,4-dione]",–
–,< 1 µM,"Cc1cc(Cl)cc(-c2ccnc3cc(Cn4c(=O)ccn(C)c4=O)sc23)c1O[C@@H]1CCN[C@H]1C(=O)O [Example 602, (2R,3R)-3-[4-chloro-2-methyl-6-[2-[(3-methyl-2,6-dioxo-pyrimidin-1-yl)methyl]thieno[3,2-b]pyridin-7-yl]phenoxy]pyrrolidine-2-carboxylic acid]",–
< 1 µM,–,"Cc1cc(Cl)cc(-c2ccnc3cc(Cn4c(=O)ccn(CC(F)F)c4=O)sc23)c1O[C@H]1CCCNC1 [Example 284, 3-[[7-[5-chloro-3-methyl-2-[[(3S)-3-piperidyl]oxy]phenyl]thieno[3,2-b]pyridin-2-yl]methyl]-1-(2,2-difluoroethyl)pyrimidine-2,4-dione; 2,2,2-trifluoroacetic acid]",–
< 1 µM,–,"Cc1cc(Cl)cc(-c2ncnc3cc(Cn4c(=O)ccn(C)c4=O)sc23)c1OC1CCNCC1 [Example 232, 3-((4-(5-Chloro-3-methyl-2-(piperidin-4-yloxy)phenyl)thieno[3,2-d]pyrimidin-6-yl)methyl)-1-methylpyrimidine-2,4(1H,3H)-dione]",–
